{"source": "patent US9610274B2", "about": "“Methods for treating bipolar disorder” (priority 2010, dated 2017)", "format_in_all_cases": "in vivo", "key": {"wild-type mice": {"system": "wild-type mice", "test": "Spontaneous activity in the open field, wild-type mice", "conditions": "WT mice; amphetamine 2 mg/kg SC; relative to vehicle", "method": "Male and female wild-type and homozygous mutant dopamine transporter KO mice (n˜10 mice/genotype/agent; produced by in vivo homologous recombination and bred at Duke University Medical Center, Durham, N.C.) were tested for spontaneous activity in the open field following a single injection of the vehicle or compound. Mice were placed into the open field for 30 min and administered SC the vehicle (sterile water), 2 mg/kg amphetamine, or three concentrations of the test compound (10, 30, 100 mg/kg). All drugs were given in a volume of 5 mL/kg. Animals were returned to the open field for an additional 90 min. Spontaneous activity was evaluated in an automated Omnitech Digiscan apparatus (Accuscan Instruments, Columbus, Ohio). […] Horizontal activity or locomotion was measured in terms of the total distance covered in cm, vertical activity or rearing was expressed in terms of the total numbers of vertical beam breaks, and stereotypy was quantified in terms of repetitive breaks of a given beam or beams with intervals of less than 1 sec. […] Data were analyzed by the Statistical Package for Social Sciences programs (version 11.0 for Windows; SPSS Science, Chicago, Ill.). The results for each dependent variable were analyzed by repeated analyses of variance (RMANOVA) for within subjects effects (group differences over time) and between-subjects effects (tests of main effects and interactions). […]"}, "[1]": {"system": "homozygous mutant dopamine transporter knockout (KO) mice", "test": "Spontaneous activity in the open field, dopamine transporter KO mice", "conditions": "single SC injection, test compound 10, 30, 100 mg/kg, amphetamine 2 mg/kg, 90 min post-injection, relative to vehicle", "method": "Male and female wild-type and homozygous mutant dopamine transporter KO mice (n˜10 mice/genotype/agent; produced by in vivo homologous recombination and bred at Duke University Medical Center, Durham, N.C.) were tested for spontaneous activity in the open field following a single injection of the vehicle or compound. […] All drugs were given in a volume of 5 mL/kg. Animals were returned to the open field for an additional 90 min. Spontaneous activity was evaluated in an automated Omnitech Digiscan apparatus (Accuscan Instruments, Columbus, Ohio). Activity was summated at 5 min intervals over the 2 h period of testing. Horizontal activity or locomotion was measured in terms of the total distance covered in cm, vertical activity or rearing was expressed in terms of the total numbers of vertical beam breaks, and stereotypy was quantified in terms of repetitive breaks of a given beam or beams with intervals of less than 1 sec. For the analyses, 10 WT and 10 KO mice were run in each of the treatment groups with approximately equal numbers of males and females assigned to each group. Data were analyzed by the Statistical Package for Social Sciences programs (version 11.0 for Windows; SPSS Science, Chicago, Ill.). The results for each dependent variable were analyzed by repeated analyses of variance (RMANOVA) for within subjects effects (group differences over time) and between-subjects effects (tests of main effects and interactions). Bonferroni corrected pair-wise comparisons were used as the post-hoc tests. A p <0.05 was considered significant."}, "isolated mice": {"system": "isolated mice", "test": "Isolation-induced fighting in mice", "conditions": "Mus musculus", "method": "Male CD-1 mice (15-20 g) were utilized in this experiment. The test compound (15, 22 and 30 mg/kg) was dissolved in physiological saline (0.9%) and administered orally (PO) in a volume of 1 mL/100 g body weight.\nMice were isolated for up to 8 weeks in individual solid walled wire cages (24×20×17 cm). The animals were not disturbed except to replenish food. Aggression was tested by placing an intruder mouse into the home cage of the resident animal. Aggression was characterized by an attack on the “intruder” during a three minute period. […] Only those resident mice displaying fighting behavior were selected. […] ED50 values were calculated from the percent inhibition of fighting in computer program based on probit analysis."}, "[2]": {"system": "adult human subjects with moderate or severe major depression without psychotic features", "test": "Randomized double-blind placebo- and active-controlled 6-week study in major depression", "conditions": "paroxetine 20 mg/day; for MADRS response rate / MADRS remission rate: Week 6; for MADRS response rate: >50% improvement in MADRS total score; for MADRS remission rate: MADRS total score less than 9", "method": "The primary objective of this study was to determine the efficacy of 2 target doses of test compound (200 and 400 mg/day) in comparison with placebo during 6 weeks of treatment in adult human subjects with moderate or severe major depression without psychotic features. An active comparator (paroxetine) was included to assist in distinguishing a negative study from a failed study. In addition, an exit interview was intended to gather information on unexpected benefits of the test compound in order to refine the clinical development program. […] In addition, positive effects of the test compound on ratings of physical energy/fitness, reduction in sadness or depression and mental energy or motivation.\nThis was a randomized, double-blind, parallel-group, active, and placebo-controlled, multicenter study conducted in the U.S. (23 centers) and Canada (4 centers). There were 2 phases: a pretreatment phase (screening/washout and a baseline visit) and a 6-week, double-blind treatment phase. Paroxetine, a positive control, was included to evaluate assay sensitivity. After washout (if needed) of prohibited substances, subjects were randomly assigned (1:1:1:1) to receive the test compound titrated to a target dose of 200 mg/day or 400 mg/day, matching placebo, or a fixed dose (20 mg/day) of paroxetine. Study drug was given twice daily for 6 weeks. Efficacy and safety were assessed weekly during the double-blind phase. Subjects completing the study underwent an Exit Interview (“Your Health and Well-Being”) and completed an Assessment of Benefits of Clinical-trial Drug-treatment (ABCD) questionnaire (U.S. sites only)."}, "[3]": {"conditions": "ITT (LOCF), change from baseline at Week 6"}, "[4]": {"conditions": "Per-Protocol (LOCF), change from baseline at Week 6"}}}
{"smiles": "CC(N)Cc1ccccc1", "note": "(stereo not drawn) [Amphetamine, amphetamine, reference compound]", "values": [{"measurement": "spontaneous activity (locomotor, rearing and stereotypical activities)", "setting": "wild-type mice", "result": "increased locomotor, rearing and stereotypical activities in WT mice"}, {"measurement": "spontaneous activity (locomotor, rearing and stereotypical activities)", "setting": "[1]", "result": "decreased them in KO animals"}]}
{"smiles": "CN(C)CCCN1c2ccccc2CCc2ccccc21", "note": "[Imipramine, imipramine, reference compound]", "values": [{"measurement": "inhibition at 15 mg/kg", "setting": "isolated mice; 1 h, 15 mg/kg PO, 60 min after dosing", "result": 20, "unit": "%"}, {"measurement": "inhibition at 30 mg/kg", "setting": "isolated mice; 1 h, 30 mg/kg PO, 60 min after dosing", "result": 50, "unit": "%"}, {"measurement": "ED50", "setting": "isolated mice; PO, inhibition of isolation-induced fighting, probit analysis, read-out: ED50 (mg/kg, PO) (confidence limits)", "result": "~30", "unit": "mg/kg"}]}
{"smiles": "Fc1ccc([C@@H]2CCNC[C@H]2COc2ccc3c(c2)OCO3)cc1", "note": "[Paroxetine, paroxetine, reference compound]", "values": [{"measurement": "MADRS response rate", "setting": "[2]; ITT (LOCF)", "result": 48, "unit": "%"}, {"measurement": "MADRS remission rate", "setting": "[2]; ITT (LOCF)", "result": 26, "unit": "%"}, {"measurement": "3 Atypical items of HAM-D 31, mean result", "setting": "[2]; [3]", "result": "−0.6"}, {"measurement": "CGI-S score, mean result", "setting": "[2]; [3]", "result": "−1.5"}, {"measurement": "MADRS core mood subscale, mean result", "setting": "[2]; [3]", "result": "−9.7"}, {"measurement": "MADRS sadness (Items 1 + 2), mean result", "setting": "[2]; [3]", "result": "−3.9"}, {"measurement": "MADRS total score (primary), mean result", "setting": "[2]; [3]", "result": "−14.1"}, {"measurement": "superiority to placebo on the primary endpoint (change from baseline at Week 6 in MADRS total score)", "setting": "[2]; ITT (LOCF), test compound 200 mg and 400 mg", "result": "statistically significant superiority to placebo"}, {"measurement": "MADRS response rate", "setting": "[2]; Per-Protocol (LOCF)", "result": 60, "unit": "%"}, {"measurement": "MADRS remission rate", "setting": "[2]; Per-Protocol (LOCF)", "result": 35, "unit": "%"}, {"measurement": "CGI-S score, mean result", "setting": "[2]; [4]", "result": "−1.9"}, {"measurement": "MADRS total score, mean result", "setting": "[2]; [4]", "result": "−17.1"}, {"measurement": "ABCD questionnaire items with statistically significant superiority to placebo", "setting": "[2]; post hoc analyses, of 51 items, U.S. sites", "result": 14, "unit": "items"}]}
